In ChEMBL document CHEMBL3046521, “Synthesis and antitumor activity of (4-hydroxyphenyl)[5-substituted alkyl/aryl)-2-thioxo-1,3,4-thiadiazol-3-yl]methanone and [(3,4-disubstituted)-1,3-thiazol-2ylidene]-4-hydroxybenzohydrazide” (2011):

Assays:
Assay type in all cases: functional
[1] = test system: MCF7; assay: Cytotoxicity against Homo sapiens (human) MCF7 cells after 48 hr by sulforhodamine B assay; settings: MCF7, 48 h
[2] = test system: HCT-116; assay: Cytotoxicity against Homo sapiens (human) HCT116 cells after 48 hr by sulforhodamine B assay; settings: HCT-116, 48 h
[3] = test system: MDA-MB-231; assay: Cytotoxicity against Homo sapiens (human) MDA-MB-231 cells after 48 hr by sulforhodamine B assay; settings: MDA-MB-231, 48 h
[4] = test system: SF-295; assay: Cytotoxicity against Homo sapiens (human) SF295 cells after 48 hr by sulforhodamine B assay; settings: SF-295, 48 h
[5] = test system: NCI-H226; assay: Cytotoxicity against Homo sapiens (human) NCI-H226 cells after 48 hr by sulforhodamine B assay; settings: NCI-H226, 48 h
[6] = test system: MOLT-4; assay: Cytotoxicity against Homo sapiens (human) MOLT4 cells after 48 hr by sulforhodamine B assay; settings: MOLT-4, 48 h
[7] = test system: LOX IMVI; assay: Cytotoxicity against Homo sapiens (human) LOXIMVI cells after 48 hr by sulforhodamine B assay
[8] = test system: OVCAR-5; assay: Cytotoxicity against Homo sapiens (human) OVCAR5 cells after 48 hr by sulforhodamine B assay; settings: OVCAR-5, 48 h
[9] = test system: HCT-15; assay: Cytotoxicity against Homo sapiens (human) HCT15 cells after 48 hr by sulforhodamine B assay; settings: HCT-15, 48 h
[10] = test system: 786-0; assay: Cytotoxicity against Homo sapiens (human) 786-0 cells after 48 hr by sulforhodamine B assay; settings: 786-0, 48 h
[11] = test system: SNB-19; assay: Cytotoxicity against Homo sapiens (human) SNB19 cells after 48 hr by sulforhodamine B assay; settings: SNB-19, 48 h
[12] = test system: OVCAR-8; assay: Cytotoxicity against Homo sapiens (human) OVCAR8 cells after 48 hr by sulforhodamine B assay; settings: OVCAR-8, 48 h
[13] = test system: SK-MEL-28; assay: Cytotoxicity against Homo sapiens (human) SK-MEL-28 cells after 48 hr by sulforhodamine B assay; settings: SK-MEL-28, 48 h
[14] = test system: SF-268; assay: Cytotoxicity against Homo sapiens (human) SF268 cells after 48 hr by sulforhodamine B assay; settings: SF-268, 48 h
[15] = test system: CCRF-CEM; assay: Cytotoxicity against Homo sapiens (human) CCRF-CEM cells after 48 hr by sulforhodamine B assay
[16] = test system: HCC 2998; assay: Cytotoxicity against Homo sapiens (human) HCC2998 cells after 48 hr by sulforhodamine B assay; settings: HCC 2998, 48 h
[17] = test system: OVCAR-3; assay: Cytotoxicity against Homo sapiens (human) OVCAR3 cells after 48 hr by sulforhodamine B assay; settings: OVCAR-3, 48 h
[18] = test system: K562; assay: Cytotoxicity against Homo sapiens (human) K562 cells after 48 hr by sulforhodamine B assay; settings: K562, 48 h
[19] = test system: MDA-MB-468; assay: Cytotoxicity against Homo sapiens (human) MDA-MB-468 cells after 48 hr by sulforhodamine B assay; settings: MDA-MB-468, 48 h
[20] = test system: HOP-62; assay: Cytotoxicity against Homo sapiens (human) HOP62 cells after 48 hr by sulforhodamine B assay; settings: HOP-62, 48 h
[21] = test system: SF-539; assay: Cytotoxicity against Homo sapiens (human) SF539 cells after 48 hr by sulforhodamine B assay; settings: SF-539, 48 h
[22] = test system: CAKI-1; assay: Cytotoxicity against Homo sapiens (human) Caki1 cells after 48 hr by sulforhodamine B assay; settings: CAKI-1, 48 h
[23] = test system: UO-31; assay: Cytotoxicity against Homo sapiens (human) UO31 cells after 48 hr by sulforhodamine B assay; settings: UO-31, 48 h
[24] = Cytotoxicity against Homo sapiens (human) NCI-ADR-RES cells after 48 hr by sulforhodamine B assay
[25] = test system: ACHN; assay: Cytotoxicity against Homo sapiens (human) ACHN cells after 48 hr by sulforhodamine B assay
[26] = test system: TK-10; assay: Cytotoxicity against Homo sapiens (human) TK10 cells after 48 hr by sulforhodamine B assay; settings: TK-10, 48 h
[27] = test system: SK-MEL-2; assay: Cytotoxicity against Homo sapiens (human) SK-MEL-2 cells after 48 hr by sulforhodamine B assay; settings: SK-MEL-2, 48 h
[28] = test system: KM12; assay: Cytotoxicity against Homo sapiens (human) KM12 cells after 48 hr by sulforhodamine B assay; settings: KM12, 48 h
[29] = test system: SK-OV-3; assay: Cytotoxicity against Homo sapiens (human) SKOV3 cells after 48 hr by sulforhodamine B assay; settings: SK-OV-3, 48 h
[30] = test system: HT-29; assay: Cytotoxicity against Homo sapiens (human) HT-29 cells after 48 hr by sulforhodamine B assay; settings: HT-29, 48 h
[31] = test system: Hs-578T; assay: Cytotoxicity against Homo sapiens (human) Hs 578T cells after 48 hr by sulforhodamine B assay

Cc1ccc(-c2cs/c(=N\NC(=O)c3ccc(O)cc3)n2-c2c(C)cccc2C)cc1
GI50 [1]: 23.4 µM
LC50 [1]: > 100 µM
TGI ([1]; read-out: pTGI (converted)): 95.5 µM
GI50 [2]: 22.9 µM
LC50 [2]: > 100 µM
TGI ([2]; read-out: pTGI (converted)): > 100 µM
GI50 [3]: 18.2 µM
LC50 [3]: > 100 µM
TGI ([3]; read-out: pTGI (converted)): > 100 µM
GI50 [4]: 20.9 µM
LC50 [4]: > 100 µM
TGI ([4]; read-out: pTGI (converted)): 79.4 µM
GI50 [5]: 26.3 µM
LC50 [5]: > 100 µM
TGI ([5]; read-out: pTGI (converted)): > 100 µM
GI50 [6]: 13.5 µM
LC50 [6]: > 100 µM
TGI ([6]; read-out: pTGI (converted)): 57.5 µM
GI50 [7]: 21.9 µM
LC50 [7]: > 100 µM
TGI ([7]; read-out: pTGI (converted)): > 100 µM
GI50 [8]: 28.2 µM
LC50 [8]: > 100 µM
TGI ([8]; read-out: pTGI (converted)): > 100 µM
GI50 [9]: 17 µM
LC50 (concentration killing 50% of cells) [9]: > 100 µM
TGI ([9]; read-out: pTGI (converted)): > 100 µM
GI50 [10]: 22.4 µM
LC50 [10]: > 100 µM
TGI ([10]; read-out: pTGI (converted)): > 100 µM
GI50 [11]: 20.9 µM
LC50 [11]: > 100 µM
TGI ([11]; read-out: pTGI (converted)): > 100 µM
GI50 [12]: 31.6 µM
LC50 [12]: > 100 µM
TGI ([12]; read-out: pTGI (converted)): > 100 µM
GI50 [13]: 30.9 µM
LC50 (concentration killing 50% of cells) [13]: > 100 µM
TGI ([13]; read-out: pTGI (converted)): 83.2 µM
GI50 [14]: 23.4 µM
LC50 [14]: > 100 µM
TGI ([14]; read-out: pTGI (converted)): > 100 µM
GI50 [15]: 33.1 µM
LC50 [15]: > 100 µM
TGI ([15]; read-out: pTGI): > 100 µM
GI50 [16]: 15.5 µM
LC50 [16]: > 100 µM
TGI ([16]; read-out: pTGI (converted)): 43.7 µM
GI50 [17]: 17.8 µM
LC50 [17]: > 100 µM
TGI ([17]; read-out: pTGI (converted)): 47.9 µM
GI50 [18]: 11.5 µM
LC50 [18]: > 100 µM
TGI ([18]; read-out: pTGI (converted)): 79.4 µM
GI50 [19]: 12 µM
LC50 [19]: > 100 µM
TGI ([19]; read-out: pTGI (converted)): > 100 µM
GI50 [20]: 23.4 µM
LC50 [20]: > 100 µM
TGI ([20]; read-out: pTGI (converted)): 74.1 µM
GI50 [21]: 21.9 µM
LC50 [21]: > 100 µM
TGI ([21]; read-out: pTGI (converted)): > 100 µM
GI50 [22]: 10.5 µM
LC50 [22]: > 100 µM
TGI ([22]; read-out: pTGI (converted)): > 100 µM
GI50 [23]: 9.55 µM
LC50 [23]: > 100 µM
TGI ([23]; read-out: pTGI): > 100 µM
GI50 [24]: 21.4 µM
LC50 [24]: > 100 µM
TGI ([24]; read-out: pTGI (converted)): 69.2 µM
GI50 [25]: 20.9 µM
LC50 [25]: > 100 µM
TGI ([25]; read-out: pTGI (converted)): > 100 µM
GI50 [26]: 19.1 µM
LC50 [26]: > 100 µM
TGI ([26]; read-out: pTGI (converted)): 83.2 µM
GI50 [27]: 30.2 µM
LC50 [27]: > 100 µM
TGI ([27]; read-out: pTGI (converted)): 95.5 µM
GI50 [28]: 18.2 µM
LC50 [28]: > 100 µM
TGI ([28]; read-out: pTGI (converted)): 89.1 µM
GI50 [29]: 30.9 µM
LC50 [29]: > 100 µM
TGI ([29]; read-out: pTGI (converted)): > 100 µM
GI50 [30]: 17.4 µM
LC50 [30]: 83.2 µM
TGI ([30]; read-out: pTGI (converted)): 38 µM
GI50 [31]: 23.4 µM
LC50 [31]: > 100 µM
TGI ([31]; read-out: pTGI (converted)): 91.2 µM
